SMILES strings stand for the structures.

Experimental findings from patent US20220132847A1, “CINNOLINIUM COMPOUNDS FOR USE IN A METHOD OF CONTROLLING UNWANTED PLANT GROWTH” (SYNGENTA CROP PROTECTION AG, priority 2019, published 2022) are described below.

What all share (assay): Post-emergence efficacy, glasshouse
Holding throughout (assay type): in vivo

Assay [1] relates to Digitaria sanguinalis (DIGSA). The settings on record: Digitaria sanguinalis, post-emergence, 312 h, evaluated after 13 days, 100=total damage to plant, 0=no damage to plant, read-out: Control of weed species after post-emergence application, DIGSA; for pest or weed control at 1000 g/ha: Application Rate 1000 g/Ha. Summed up: (§1)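 Seedlings at 14 days post-sowing receive a spray of aqueous compound dilution. After 13 further days in the glasshouse, watered twice daily, each plant gets a visual score where 0 means undamaged and 100 means total damage.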

Assay [2] concerns Ipomoea hederacea (IPOHE). The settings on record: Ipomoea hederacea, post-emergence, 312 h, evaluated after 13 days, 100=total damage to plant, 0=no damage to plant, read-out: Control of weed species after post-emergence application, IPOHE; for pest or weed control at 1000 g/ha: Application Rate 1000 g/Ha. The method in brief: as §1
Assay [3] concerns Euphorbia heterophylla (EPHHL). Conditions: Euphorbia heterophylla, post-emergence, 312 h, evaluated after 13 days, 100=total damage to plant, 0=no damage to plant, read-out: Control of weed species after post-emergence application, EPHHL; for pest or weed control at 1000 g/ha: Application Rate 1000 g/Ha. Summed up: as §1
The test system of the next assay is Eleusine indica (ELEIN). The settings on record: Eleusine indica, post-emergence, 312 h, evaluated after 13 days, 100=total damage to plant, 0=no damage to plant, read-out: Control of weed species after post-emergence application, ELEIN; for pest or weed control at 1000 g/ha: Application Rate 1000 g/Ha. Summed up: as §1
Assay [4] has as its system Amaranthus palmeri (AMAPA). The settings on record: Amaranthus palmeri, post-emergence, 312 h, evaluated after 13 days, 100=total damage to plant, 0=no damage to plant, read-out: Control of weed species after post-emergence application, AMAPA; for pest or weed control at 1000 g/ha: Application Rate 1000 g/Ha. The method in brief:
as §1

Another assay relates to Lolium perenne (LOLPE). The settings on record: Lolium perenne, post-emergence, 312 h, evaluated after 13 days, 100=total damage to plant, 0=no damage to plant, read-out: Control of weed species after post-emergence application, LOLPE; for pest or weed control at 1000 g/ha: Application Rate 1000 g/Ha. The method in brief: as §1
The test system of assay [5] is Chenopodium album (CHEAL). Conditions: Chenopodium album, post-emergence, 312 h, evaluated after 13 days, 100=total damage to plant, 0=no damage to plant, read-out: Control of weed species after post-emergence application, CHEAL; for pest or weed control at 1000 g/ha: Application Rate 1000 g/Ha. The method in brief:
as §1

Another assay deals with Setaria faberi (SETFA). The settings on record: Setaria faberi, post-emergence, 312 h, evaluated after 13 days, 100=total damage to plant, 0=no damage to plant, read-out: Control of weed species after post-emergence application, SETFA; for pest or weed control at 1000 g/ha: Application Rate 1000 g/Ha. The method in brief:
as §1

For assay [6], the system named is Echinochloa crus-galli (ECHCG). Conditions: Echinochloa crus-galli, post-emergence, 312 h, evaluated after 13 days, 100=total damage to plant, 0=no damage to plant, read-out: Control of weed species after post-emergence application, ECHCG; for pest or weed control at 1000 g/ha: Application Rate 1000 g/Ha. Summed up: as §1

`C[n+]1cc(P(C)(=O)O)c2ccccc2n1` [Compound A31]: the pest or weed control at 1000 g/ha was 100% in assay [1]; 90% in assay [2]; 100% in [3]; 100% with Eleusine indica (ELEIN); 100% in assay [4]; 70% in the assay on Lolium perenne (LOLPE). Further, the pest or weed control at 1000 g/ha in [5] was determined as 80%; in the assay with Setaria faberi (SETFA) it was 90%; in assay [6], 60%.
Turning to `COCC[n+]1cc(C(=O)[N-]S(C)(=O)=O)c2ccccc2n1` [Compound A24], the pest or weed control at 1000 g/ha came to 40% in [1]; 60% in assay [2]; 40% in assay [3]; 50% with Eleusine indica (ELEIN); 70% in assay [4]; 20% with Lolium perenne (LOLPE). Besides, the values for the pest or weed control at 1000 g/ha (in assay [5]; with Setaria faberi (SETFA); in assay [6]) were 70%, 50% and 50%, respectively.
Turning to `CCOP(=O)(O)CCc1c[n+](C)nc2ccccc12` [Compound A54, ethoxy-[2-(2-methylcinnolin-2-ium-4-yl)ethyl]phosphinic acid 2,2,2-trifluoroacetate], the pest or weed control at 500 g/ha in assay [1] (Application Rate 500 g/Ha) worked out at 40%; in assay [2] (Application Rate 500 g/Ha) it was 20%; in [3] (Application Rate 500 g/Ha), 80%; in the assay on Eleusine indica (ELEIN) (Application Rate 500 g/Ha), 30%; in [4] (Application Rate 500 g/Ha), 30%; with Lolium perenne (LOLPE) (Application Rate 500 g/Ha), 20%. Also, the pest or weed control at 500 g/ha in assay [5] (Application Rate 500 g/Ha) was 20%; with Setaria faberi (SETFA) (Application Rate 500 g/Ha), 30%; in [6] (Application Rate 500 g/Ha), 30%.
For the compound `O=C(O)c1c[n+](CCO)nc2ccccc12` [Compound A30], the pest or weed control at 1000 g/ha in [1] was determined as 90%; in assay [2] it was 100%; in [3], 100%; in the assay with Eleusine indica (ELEIN), 80%; in [4], 100%; with Lolium perenne (LOLPE), 40%. Moreover, the pest or weed control at 1000 g/ha in assay [5] was determined as 100%; in the assay with Setaria faberi (SETFA) it was 70%; in assay [6] it was 50%.
For `CC[n+]1cc(C(=O)[N-]S(C)(=O)=O)c2ccccc2n1` [Compound A22, (2-ethylcinnolin-2-ium-4-carbonyl)-methylsulfonyl-azanide], the pest or weed control at 1000 g/ha was 80% in [1]; 90% in assay [2]; 60% in [3]; 70% with Eleusine indica (ELEIN); 70% in [4]; 60% in the assay with Lolium perenne (LOLPE). For the same compound, the pest or weed control at 1000 g/ha worked out at 70% in [5], 70% in the assay on Setaria faberi (SETFA) and 50% in assay [6].
Turning to `COP(=O)(OC)c1c[n+](CCOS(=O)(=O)[O-])nc2ccccc12` [Compound A70], the pest or weed control at 1000 g/ha worked out at 70% in [1]; 30% in assay [2]; 60% in assay [3]; 80% in the assay on Eleusine indica (ELEIN); 50% in [4]; 10% in the assay with Lolium perenne (LOLPE). Besides, the pest or weed control at 1000 g/ha in assay [5] was 60%; in the assay on Setaria faberi (SETFA), 20%; in assay [6] it was 70%.
`O=C(O)CC[n+]1cc(C(=O)[N-]S(=O)(=O)C2CC2)c2ccccc2n1` [Compound A20, [2-(2-carboxyethyl)cinnolin-2-ium-4-carbonyl]-cyclopropylsulfonyl-azanide]: the pest or weed control at 1000 g/ha in assay [1] was determined as 0%; in assay [2], 10%; in assay [3], 20%; in the assay with Eleusine indica (ELEIN), 0%; in [4], 50%; in the assay with Lolium perenne (LOLPE), 0%. Further, the pest or weed control at 1000 g/ha was 30% in [5], 0% with Setaria faberi (SETFA) and 10% in assay [6].
